Laboratory results as given in ChEMBL document CHEMBL1765007, “Synthesis and biological evaluation of new 2-alkylaminoethyl-1,1-bisphosphonic acids against Trypanosoma cruzi and Toxoplasma gondii targeting farnesyl diphosphate synthase” (Bioorg Med Chem, 2011).

How the values were obtained:
[1] = test system: Trypanosoma cruzi; assay: Antiparasitic activity against Trypanosoma cruzi amastigotes infected in gamma-irradiated vero cells assessed as growth inhibition by fluorescence assay; assay type: functional, organism-based; settings: light or radiation study
[2] = biological target: T1, Farnesyl diphosphate synthase (Trypanosoma cruzi, UniProt Q8WS26); assay: Inhibition of Trypanosoma cruzi FPPS after 30 mins using [14C]IPP by scintillation counting
T1 sequence (Q8WS26 whole entry): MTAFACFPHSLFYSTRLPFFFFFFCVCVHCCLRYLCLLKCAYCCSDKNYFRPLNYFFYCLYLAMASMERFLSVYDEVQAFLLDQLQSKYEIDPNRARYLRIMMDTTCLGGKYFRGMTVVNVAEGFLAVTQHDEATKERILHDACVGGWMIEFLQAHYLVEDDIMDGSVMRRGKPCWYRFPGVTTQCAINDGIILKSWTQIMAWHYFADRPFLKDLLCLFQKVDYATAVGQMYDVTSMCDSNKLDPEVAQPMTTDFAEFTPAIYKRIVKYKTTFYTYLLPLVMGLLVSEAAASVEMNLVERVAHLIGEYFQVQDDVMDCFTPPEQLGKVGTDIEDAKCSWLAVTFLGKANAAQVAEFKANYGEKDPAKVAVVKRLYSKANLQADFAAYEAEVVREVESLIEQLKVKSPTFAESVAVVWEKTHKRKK

[3] = test system: Toxoplasma gondii; assay: Antiparasitic activity against Toxoplasma gondii tachyzoite expressing red fluorescence protein assessed as growth inhibition by fluorescence plate reader; assay type: functional, organism-based
[4] = biological target: T2, Farnesyl diphosphate synthase (Toxoplasma gondii, UniProt Q197X6); assay: Inhibition of Toxoplasma gondii FPPS after 30 mins using [14C]IPP by scintillation counting
T2 sequence (Q197X6 whole entry): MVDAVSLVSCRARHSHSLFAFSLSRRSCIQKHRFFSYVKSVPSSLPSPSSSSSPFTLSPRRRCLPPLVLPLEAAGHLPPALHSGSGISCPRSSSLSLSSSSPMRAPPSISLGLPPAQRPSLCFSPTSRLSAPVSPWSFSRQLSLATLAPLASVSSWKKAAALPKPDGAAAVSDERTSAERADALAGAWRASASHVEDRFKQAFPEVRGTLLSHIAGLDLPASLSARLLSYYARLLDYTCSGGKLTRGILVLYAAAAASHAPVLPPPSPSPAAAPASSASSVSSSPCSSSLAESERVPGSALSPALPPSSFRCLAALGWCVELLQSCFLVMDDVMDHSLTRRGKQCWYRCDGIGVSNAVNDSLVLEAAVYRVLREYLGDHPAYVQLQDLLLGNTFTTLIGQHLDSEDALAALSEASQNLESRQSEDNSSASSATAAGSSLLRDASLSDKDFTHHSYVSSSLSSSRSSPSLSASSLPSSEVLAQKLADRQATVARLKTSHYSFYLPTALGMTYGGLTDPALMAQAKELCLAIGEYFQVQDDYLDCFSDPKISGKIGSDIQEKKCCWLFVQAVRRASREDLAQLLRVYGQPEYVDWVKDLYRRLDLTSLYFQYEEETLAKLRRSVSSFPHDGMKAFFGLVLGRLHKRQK

[5] = test system: Toxoplasma gondii; assay: Antiparasitic activity against Toxoplasma gondii assessed as growth inhibition; assay type: functional, organism-based

Row | SMILES | IC50 [1] [µM] | IC50 [2] [µM] | IC50 [3] [µM] | IC50 [4] [µM] | IC50 [5] [µM]
1 | O=P(O)(O)C(CNCc1ccccc1)P(=O)(O)O | > 10 | > 1 | > 10 |  | 
2 | CCCCCCCCCNCC(P(=O)(O)O)P(=O)(O)O | > 10 | 0.43 | > 10 | 0.44 | 
3 | CCCCCCCCCCNCC(P(=O)(O)O)P(=O)(O)O | > 10 | > 1 | > 10 | 0.068 | 
4 | CCCCCCCCCCCNCC(P(=O)(O)O)P(=O)(O)O | 5.13 | 0.856 | > 10 | 0.868 | 
5 | CCCCCCCCCCCCNCC(P(=O)(O)O)P(=O)(O)O | 0.67 | 0.811 | 6.23 | 0.093 | 
6 | CCCCCCCCCCCCCCNCC(P(=O)(O)O)P(=O)(O)O | > 10 | > 1 | 11.3 | 0.292 | 
7 | CCCCCCCCCCCCCCCCNCC(P(=O)(O)O)P(=O)(O)O | 2.19 |  | 4.13 |  | 
8 | CCCCCCCCCCCCCCCCCCNCC(P(=O)(O)O)P(=O)(O)O | > 10 |  | 5.29 |  | 
9 | CCCCCCNCC(P(=O)(O)O)P(=O)(O)O | 0.84 |  |  |  | 9.37
10 | O=C(Cn1ccnc1[N+](=O)[O-])NCc1ccccc1 [BENZNIDAZOLE] | 2.77 |  |  |  | 
